Assay results taken from patent US11976083B2, “Inhibitors of peptidylarginine deiminases” (Gilead Sciences, Inc., priority 2020, dated 2024).
pIC50: −log10 of the molar value.

Target: T1, human PAD4 (Homo sapiens, UniProt Q9UM07)
T1 construct: human PAD4 (NM_012387), A2-P663, was PCR amplified; His-SUMO (N, cleaved yes); made in house; host or cells: E. coli BL21(DE3)
Assay: In vitro PAD4 BAEE biochemical assay
Conditions: BAEE substrate 3 mM, 5 nM PAD4, 2 mM calcium chloride; geometric mean of multiple experiments
Outline: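 Ammonia produced by BAEE deimination (3 mM substrate, 2 h, 25 °C) was read as fluorescent isoindole after o-phthalaldehyde/DTT derivatization, ex 405 nm/em 535 nm. Human PAD4 at 5 nM final, 2 mM calcium, pH 7.6 MOPS; compound preincubated 30 min. IC50s, normalized to BB-Cl-Amidine and DMSO controls, were geometric-mean averaged.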

T1 sequence (Q9UM07 2-663): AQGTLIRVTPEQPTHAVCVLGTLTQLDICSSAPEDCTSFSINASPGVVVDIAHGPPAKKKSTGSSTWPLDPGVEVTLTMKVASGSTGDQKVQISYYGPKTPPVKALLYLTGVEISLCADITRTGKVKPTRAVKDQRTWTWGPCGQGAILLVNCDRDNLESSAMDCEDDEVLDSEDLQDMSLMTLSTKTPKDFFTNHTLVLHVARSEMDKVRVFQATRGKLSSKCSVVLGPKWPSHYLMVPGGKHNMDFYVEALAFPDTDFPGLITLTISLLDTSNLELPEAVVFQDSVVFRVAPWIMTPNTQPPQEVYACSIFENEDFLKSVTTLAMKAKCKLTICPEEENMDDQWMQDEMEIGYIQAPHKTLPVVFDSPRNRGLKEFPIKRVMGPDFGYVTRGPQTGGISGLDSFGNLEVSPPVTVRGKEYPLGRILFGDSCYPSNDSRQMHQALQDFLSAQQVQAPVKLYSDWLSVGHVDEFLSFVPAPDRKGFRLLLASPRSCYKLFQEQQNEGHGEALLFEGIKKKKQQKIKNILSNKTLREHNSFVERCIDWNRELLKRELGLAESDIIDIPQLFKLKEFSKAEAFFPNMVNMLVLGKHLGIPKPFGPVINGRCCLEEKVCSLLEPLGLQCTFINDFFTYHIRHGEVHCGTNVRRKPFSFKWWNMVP

Row | SMILES | pIC50
1 | COc1cc(C(=O)N2C[C@H](N)[C@@H]3CC[C@H]2C3)cc2nc(-c3cc4ccc5nc4n3CCCCCc3nc(Cl)ccc3C(=O)N[C@@H]5C)n(C3CC3)c12 [Example 809, (2˜{R})-17-[5-[(1˜{S},4˜{R},5˜{R})-4-amino-2-azabicyclo[3.2.1]octane-2-carbonyl]-1-cyclopropyl-7-methoxy-benzimidazol-2-yl]-8-chloro-2-methyl-3,9,16,22-tetrazatetracyclo[14.5.2.0^{5,10}.0^{19,23}]tricosa-1(21),5(10),6,8,17,19,22-heptaen-4-one] | 7.41
2 | C[C@H]1NC(=O)[C@@H]2C[C@H]2CCCC(F)(F)Cn2c(-c3nc4cc(C(=O)N5C[C@H](N)[C@@H]6CC[C@H]5C6)cc(F)c4n3[C@@H]3C[C@H]3F)cc3ccc1nc32 [Example 477, (2~{R},5~{R},7~{R})-14-[5-[(1~{S},4~{R},5~{R})-4-amino-2-azabicyclo[3.2.1]octane-2-carbonyl]-7-fluoro-1-[(1~{R},2~{R})-2-fluorocyclopropyl]benzimidazol-2-yl]-11,11-difluoro-2-methyl-3,13,19-triazatetracyclo[11.5.2.0^{5,7}.0^{16,20}] icosa-1(19),14,16(20),17-tetraen-4-one] | 7.46
3 | COc1cc(C(=O)N2CC[C@@H](OC)[C@@H](N)C2)cc2nc(-c3cc4ccc5nc4n3CCCCCc3nccnc3C(=O)N[C@@H]5C)n(C)c12 [Example 240, (2~{R})-17-[5-[(3~{S),4~{R})-3-amino-4-methoxy-piperidine-1-carbonyl]-7-methoxy-1-methyl-benzimidazol-2-yl]-2-methyl-3,6,9,16,22-pentazatetracyclo[14.5.2.0^{5,10}.0^{19, 23}]tricosa-1(21),5(10),6,8,17,19,22-heptaen-4-one] | 6.86
4 | COc1cc(C(=O)N2CC[C@@H](OC(F)F)[C@@H](N)C2)cc2nc(-c3cc4ccc5nc4n3CCCCCC[C@@H](OC)C(=O)N[C@@H]5C)n(C)c12 [Example 629, (8~{R},11~{R})-17-[5-[(3~ {S},4~{R})-3-amino-4-(difluoromethoxy)piperidine-1-carbonyl]-7-methoxy-1-methyl-benzimidazol-2-yl]-8-methoxy-11-methyl-1,10,19-triazatricyclo [10.5.2.0^{15,18}]nonadeca-12(19),13,15(18),16-tetraen-9-one] | 6.97
5 | C[C@H]1NC(=O)c2ccc(Cl)nc2CCCCCn2c(-c3nc4cc(C(=O)N5C[C@H](N)[C@@H]6CC[C@H]5C6)cc(F)c4n3C3CC3)cc3ccc1nc32 [Example 472, (2˜{R})-17-[5-[(1˜{S},4˜{R},5˜{R})-4-amino-2-azabicyclo[3.2.1]octane-2-carbonyl]-1-cyclopropyl-7-fluoro-benzimidazol-2-yl]-8-chloro-2-methyl-3,9,16,22-tetrazatetracyclo[14.5.2.0^{5,10}.0^{19,23}]tricosa-1(21),5(10),6,8,17,19,22-heptaen-4-one] | 7.38
6 | COc1cc(C(=O)N2CC[C@@H](OC)[C@@H](N)C2)cc2nc(-c3cc4ccc5nc4n3CCCCCC(C)(C)C(=O)N[C@@H]5C)n(C)c12 [Example 61, (10~{R})-16-[5-[(3~{S},4~{R})-3-amino-4-methoxy-piperidine-1-carbonyl]-7-methoxy-1-methyl-benzimidazol-2-yl]-7,7,10-trimethyl-1,9,18-triazatricyclo[9.5.2.0^{14,17}]octadeca-11(18),12,14(17),15-tetraen-8-one] | 6.64
7 | COC1(Cn2c(-c3cc4ccc5nc4n3CCCCC[C@@H]3C[C@H]3C(=O)N[C@@H]5C)nc3cc(C(=O)N[C@H]4CNCC[C@@H]4F)c(F)cc32)CC1 [Example 404, 6-fluoro-~{N}-[(3~{S},4~{S})-4-fluoro-3-piperidyl]-1-[(1-methoxycyclopropyl)methyl]-2-[(2~{R},5~{R},7~{R})-2-methyl-4-oxo-3,13,19-triazatetracyclo[11.5.2.0^{5,7}.0^{16,20}]icosa-1(19),14,16(20),17-tetraen-14-yl]benzimidazole-5-carboxamide] | 7.08
8 | C[C@H]1NC(=O)[C@@H]2[C@@H](CCCCCn3c(-c4nc5cc(C(=O)N[C@H]6CNCC[C@@H]6F)c(F)cc5n4C)cc4ccc1nc43)C2(F)F (single isomer, unassigned) [Example 382, 2-[(2˜{R},5˜{S},7˜{R})-6,6-difluoro-2-methyl-4-oxo-3,13,19-triazatetracyclo[11.5.2.0^{5,7}.0^{16,20}]icosa-1(19),14,16(20),17-tetraen-14-yl]-6-fluoro-˜{N}-[(3˜{S},4˜{S})-4-fluoro-3-piperidyl]-1-methyl-benzimidazole-5-carboxamide] | 6.97

Continued by rising pIC50, values first:

Row | pIC50 | SMILES
9 | 5.30 | COc1cc(C(=O)N2CCC[C@@H](N)C2)cc2nc(-c3cc4ccc5nc4n3CCCCCCC(=O)Nc3ccncc3-5)n(C)c12 [Example 45, 17-[5-[(3~{R})-3-aminopiperidine-1-carbonyl]-7-methoxy-1-methyl-benzimidazol-2-yl]-4,8,16,22-tetrazatetracyclo[14.5.2.0^{2,7}.0^{19,23}] tricosa-1(22),2,4,6,17,19(23),20-heptaen-9-one]
10 | 5.94 | COc1cc(C(=O)N2CC[C@@H](CO)[C@H](N)C2)cc2nc(-c3cc4ccc5nc4n3CCCCCCC(C)(C)C(=O)N[C@@H]5C)n(C)c12 [Example 66, (11˜{R})-17-[5-[(3˜{S},4˜{R})-3-amino-4-(hydroxymethyl)piperidine-1-carbonyl]-7-methoxy-1-methyl-benzimidazol-2-yl]-8,8,11-trimethyl-1,10,19-triazatricyclo[10.5.2.0^{15,18}]nonadeca-12(19),13,15(18),16-tetraen-9-one]
11 | 6.87 | C[C@H]1NC(=O)[C@@](F)(c2cccc(Cl)n2)CCCCCCn2c(-c3nc4cc(C(=O)N5C[C@H](N)[C@@H]6CC[C@H]5C6)cc(F)c4n3C3CC3)cc3ccc1nc32 [Example 480, (8~{S},11~{R})-17-[5-[(1~{S},4~{R},5~{R})-4-amino-2-azabicyclo[3.2.1]octane-2-carbonyl]-1-cyclopropyl-7-fluoro-benzimidazol-2-yl]-8-(6-chloro-2-pyridyl)-8-fluoro-11-methyl-1,10,19-triazatricyclo[10.5.2.0^{15,18}]nonadeca-12(19),13,15(18),16-tetraen-9-one]
12 | 7.00 | COc1cc(C(=O)N2C[C@H](N)[C@@H]3CC[C@H]2C3)cc2nc(-c3cc4ccc5nc4n3CCCCCOC3(CC3)C(=O)N[C@@H]5C)n(C3CC3)c12 [Example 904, (11~{R})-17-[5-[(1~{S),4~{R}, 5~{R})-4-amino-2-azabicyclo [3.2.1]octane-2-carbonyl]-1-cyclopropyl-7-methoxy-benzimidazol-2-yl]-11-methyl-spiro[7-oxa-1,10,19-triazatricyclo[10.5.2.0^{15,18}]nonadeca-12(19), 13,15(18),16-tetraene-8,1′-cyclopropane]-9-one]
13 | 7.01 | C[C@H]1NC(=O)c2ccccc2CC[C@H]2C[C@@H]2Cn2c(-c3nc4cc(C(=O)N[C@H]5CNCC[C@@H]5F)c(F)cc4n3C)cc3ccc1nc32 [Example 351, 6-fluoro-~{N}-[(3~{S},4~{S})-4-fluoro-3-piperidyl]-1-methyl-2-[(3~{S},5~{S),16~{R})-16-methyl-14-oxo-1,15,24-triazapentacyclo[15.5.2.0^{3,5}.0^{8,13}.0^ {20,23}]tetracosa-8,10,12,17(24),18,20(23),21-heptaen-22-yl]benzimidazole-5-carboxamide]
14 | 7.28 | C[C@H]1NC(=O)[C@@H]2C[C@H]2CCCCCn2c(-c3nc4cc(C(=O)N[C@H]5CNCC[C@@H]5F)c(F)cc4n3[C@@H]3C[C@H]3C(F)F)cc3ccc1nc32 [Example 415, 1-[(1~{R},2~{R})-2-(difluoromethyl)cyclopropyl]-6-fluoro-~ {N}-[(3~{S},4~{S})-4-fluoro-3-piperidyl]-2-[(2~{R},5~{R},7~{R})-2-methyl-4-oxo-3,13,19-triazatetracyclo[11.5.2.0^{5,7}.0^{16,20}]icosa-1(19),14,16(20),17-tetraen-14-yl]benzimidazole-5-carboxamide]
15 | 7.32 | CO[C@@H]1CCN(C(=O)c2ccc3c(c2)nc(-c2cc4ccc5nc4n2CCCCCc2ccnc(C)c2C(=O)N[C@@H]5C)n3C2CC2)C[C@@H]1N [Example 696, (2~{R})-17-[5-[(3~{S}, 4~{R})-3-amino-4-methoxy-piperidine-1-carbonyl]-1-cyclopropyl-benzimidazol-2-yl]-2,6-dimethyl-3,7,16,22-tetrazatetracyclo [14.5.2.0^{5,10}.0^{19,23}] tricosa-1(22),5(10), 6,8,17,19(23),20-heptaen-4-one]
16 | 7.47 | C[C@H]1NC(=O)c2ccc(Cl)nc2CC[C@@H]2C[C@H]2Cn2c(-c3nc4cc(C(=O)N5C[C@H](N)[C@@H]6CC[C@H]5C6)cc(F)c4n3C3CC3)cc3ccc1nc32 [Example 879, (3~{R},5~{R},16~{R})-22-[5-[(1~{S},4~{R}, 5~{R})-4-amino-2-azabicyclo[3.2.1]octane-2-carbonyl]-1-cyclopropyl-7-fluoro-benzimidazol-2-yl]-10-chloro-16-methyl-1,9,15,24-tetrazapentacyclo[15.5.2.0^ {3,5}.0^{8,13}.0^{20,23}] tetracosa-8(13),9,11,17(24), 18,20(23),21-heptaen-14-one]
17 | 7.89 | COc1cc(C(=O)N2[C@H]3CC[C@@H]2[C@H](N)C3)cc2nc(-c3cc4ccc5cc4n3CCCCCCCC(=O)N3CCC[C@H]53)n(C)c12 [Example 129, (2~{R})-16-[5-[(1~{R},2~{R},4~{S})-2-amino-7-azabicyclo[2.2.1]heptane-7-carbonyl]-7-methoxy-1-methyl-benzimidazol-2-yl]-6,15-diazatetracyclo[13.5.2.0^{2,6}.0^{18,22}] docosa-1(21),16,18(22),19-tetraen-7-one]
